From US11981626B1, “Compound embodiments for hydrogen sulfide production and methods of making and using the same” (University of Oregon, priority 2018, dated 2024) come the findings set out here.

The test system of data set [1] is macrophage RAW 264.7 cells. As to the kind of experiment: LPS-induced NO2− formation in macrophage RAW 264.7 cells (Griess). It counts as cell-based. Particulars: 25 μM pretreatment 6 hours, LPS 1.0 μg/mL 18 hours. How it is done: In this example, the ability of embodiments of the disclosed donor compound to provide anti-inflammatory activity was evaluated. To investigate the potential protective effects of the developed donors, pretreated macrophage RAW 264.7 cells were pretreated with γ-KetoTCM-1 (25 μM) for 6 hours, followed by an 18-hour incubation with lipopolysaccharide (LPS, 1.0 μg/mL) to induce an inflammatory response. This response is accompanied by an increase in NO production, which was monitored by measuring nitrite (NO2−) accumulation. To determine whether the observed effects were due to COS/H2S release, control experiments with γ-KetoTCM-3, γ-KetoCM-1, and GYY4137 under the identical condition also were performed. GYY4137 was used as a positive control because it has shown anti-inflammatory effects previously, and because it generates a slow, continuous release of H2S.
In this example, macrophage RAW 264.7 cells were seeded in a 24-well plate (5×10^5 cells/well) containing 0.50 mL of DMEM and incubated at 37° C. under 5% CO2 for 24 hours. The confluent cells were washed with PBS and incubated with either γ-KetoTCM-1, γ-KetoTCM-3, γ-KetoCM-1, or GYY4137 (25.0 μM) at 37° C. for 6 hours. Compounds were then removed by washing cells with PBS and these pretreated cells were incubated in FBS-free DMEM containing LPS (1.00 μg/mL) for 18 hours. NO2− levels were measured by using a Griess Reagent Kit.
(Nitrite, measured by Griess reagent, commonly stands in for NO production.)

Data set [2] in a line: COS/H2S release monitored by PNA formation (UV-Vis) in PBS containing CA. It counts as physicochemical. To be noted: for half-life at 50 μM: PBS containing carbonic anhydrase (CA), pH 7.4, pH 7.4 PBS, ln(2)/kobs; for half-life at 50 μM / kobs (COS/H2S releasing kinetics): 37° C.; for kobs (COS/H2S releasing kinetics) / krel: pH 7.4 PBS; for kobs (COS/H2S releasing kinetics): CA 25 μg/mL, 50 μM; for krel: relative to γ-KetoTCM-1 at pH 7.4. Here is the method: To investigate COS/H2S release from donor compound embodiments, γ-KetoTCM-1 (50 μM) was incubated in PBS (pH 7.4, 10 mM) containing CA (25 μg/mL) and H2S release was detected by monitoring para-nitroaniline (PNA) formation at 37° C. In particular, a γ-KetoTCM-1 stock solution (15.0 μL, 10.0 mM in DMSO) was added to 3.00 mL of PBS (pH 6.00, 7.40 or 8.00, 10.0 mM) containing CA (25.0 μg/mL) in a quartz UV cuvette. The absorbance (250-500 nm) was measured and recorded by using Agilent Cary 100 or Cary 60 UV-Vis spectrometers at 37° C. kobs was then obtained by plotting the absorbance ratio of PNA and γ-KetoTCM-1 versus time and t1/2 was calculated by dividing In(2) by kobs.
In this example, pH effects on COS/H2S release were investigated by incubating γ-KetoTCM-1 (50 μM) in PBS (pH 6.0-8.0) and monitoring with a UV-Vis spectrometer. […] In particular, a γ-KetoTCM-1 stock solution (15.0 μL, 10.0 mM in DMSO) was added to 3.00 mL of PBS (pH 6.00, 10.0 mM) containing CA (25.0 μg/mL) in a 3-mL UV cuvette. The absorbance (250-500 nm) was measured and recorded at 37° C. kobs was then obtained by plotting the absorbance ratio of PNA and γ-KetoTCM-1 vs time.

The subject of data set [3] is HeLa cells. Description: H2S delivery in HeLa cells imaged with SF7-AM fluorescent probe. Particulars: 100 μM, 2 hours. It counts as cell-based. Here is the method:
In this example, it was evaluated whether γ-KetoTCM-based donors can be activated to deliver H2S in cellular environments. SF7-AM, a cell-trappable H2S fluorescent probe, was used to monitor H2S accumulation from γ-KetoTCM-1 in HeLa cells. In the absence of γ-KetoTCM-1, no fluorescent signal from SF7-AM was observed, indicating negligible endogenous H2S (FIG. 9, left column, including the top and bottom images).
HeLa cells were plated in poly-D-lysine coated plates (MatTek) containing 2.00 mL of DMEM and incubated at 37° C. under 5% CO2 for 24 hours. The confluent cells were washed with PBS and then co-incubated with SF7-AM (5.00 μM) and NucBlue nuclear dye (2 drops) for 30 minutes. The cells were then washed with PBS and incubated with either γ-KetoTCM-1 (100 μM) or γ-KetoCM-1 (100 μM) alone for 2 hours. Prior to imaging, the cells were washed with PBS and bathed in 2.00 mL of PBS. Cell imaging was performed on a Leica DMi8 fluorescent microscope.

On to `C1COCCN1.COc1ccc(P(=S)(S)N2CCOCC2)cc1` (centres unmarked) [GYY4137, reference compound], for which the “effect on LPS-induced NO2− production” value in data set [1] is listed as “less pronounced effect”.

With `CC(=O)CCOC(=O)Nc1ccc([N+](=O)[O-])cc1` [γ-KetoCM-1], in data set [1], the “effect on LPS-induced NO2− production” value is listed as “reduced NO2− levels, although to a lesser extent than γ-KetoTCM-1”. In data set [2], the half-life at 50 μM is 13.4 ± 0.3 h, the “kobs (COS/H2S releasing kinetics)” value is 1.44 ± 0.03 ×10^−5 s^−1 and the krel turned out to be 0.32. For the same molecule, in data set [3], the “SF7-AM fluorescence (H2S accumulation)” value is listed as “failed to provide a SF7-AM signal”.

Take `CC(=O)C(C)COC(=S)Nc1ccc([N+](=O)[O-])cc1` (centres unmarked) [γ-KetoTCM-2]: in data set [2], the half-life at 50 μM was 25.9 h, the “kobs (COS/H2S releasing kinetics)” value is on record as 0.82 ± 0.02 ×10^−5 s^−1 and the krel was 0.188.

Consider `CC(=O)C(C)(C)COC(=S)Nc1ccc([N+](=O)[O-])cc1` [γ-KetoTCM-3], for which, in data set [1], the “effect on LPS-induced NO2− production” value was “modest reduction”. For the same molecule, the “PNA released in PBS buffer (indicating COS/H2S release)” value in data set [2] (PBS pH 7.4, 37° C.) is “negligible”.
